Laboratory results published in PMC10747462, “A Hydrolase Produced by Rhodococcus erythropolis HQ Is Responsible for the Detoxification of Zearalenone” (Toxins, 2023).

Tested on: T1, ZenR
T1 construct: gene PXH69_30770
Details: read-out: Km,app; optimal conditions (55 °C, pH 8.0-9.0); 10-300 μM ZEN; no metal needed

T1 sequence (A0AAW6LW22 entry or part of it): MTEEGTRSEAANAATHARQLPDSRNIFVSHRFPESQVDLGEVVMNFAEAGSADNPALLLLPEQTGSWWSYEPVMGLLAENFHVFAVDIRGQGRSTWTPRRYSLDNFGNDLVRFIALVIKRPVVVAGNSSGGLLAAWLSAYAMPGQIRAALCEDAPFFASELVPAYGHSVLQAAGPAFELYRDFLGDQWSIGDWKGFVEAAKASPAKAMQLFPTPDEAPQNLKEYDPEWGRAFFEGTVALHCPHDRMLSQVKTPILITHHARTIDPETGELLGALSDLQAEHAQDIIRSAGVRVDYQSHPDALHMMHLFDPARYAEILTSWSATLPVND

`C[C@H]1CCCC(=O)CCC/C=C/c2cc(O)cc(O)c2C(=O)O1` [Zearalenone] showed a Km of 21.14 ± 0.16 µM.
